From ChEMBL document CHEMBL1671708, “Hydroxymethylnitrofurazone is active in a murine model of Chagas' disease” (Antimicrob Agents Chemother, 2010)
Active and inactive are the calls of the source. The calls are words filed in the database; no cut-off is given here.

Key:
[1] = system: Trypanosoma cruzi; assay: Antimicrobial activity against Trypanosoma cruzi Tulahuen infected in Swiss mouse assessed as mouse mortality at 60 mg/kg/day, po for 6 days per week until completion of 60 compound doses administered 5 days post infection; type: functional
[2] = system: Trypanosoma cruzi; assay: Antimicrobial activity against Trypanosoma cruzi Tulahuen infected in Swiss mouse assessed as parasite DNA level at 60 mg/kg/day, po for 6 days per week until completion of 60 compound doses administered 5 days post infection measured 30 days post dose by PCR amplification method; type: functional
[3] = system: Trypanosoma cruzi; assay: Antimicrobial activity against Trypanosoma cruzi Tulahuen infected in Swiss mouse assessed as parasite DNA level at 60 mg/kg/day, po for 6 days per week until completion of 60 compound doses administered 5 days post infection measured 180 days post dose by PCR amplification method; type: functional
[4] = system: Trypanosoma cruzi; assay: (§1) Antimicrobial activity against Trypanosoma cruzi Tulahuen infected in Swiss mouse assessed as reduction in blood parasite load at 60 mg/kg/day, po for 6 days per week until completion of 60 compound doses administered 5 days post infection; type: functional, organism-based
[5] = system: Trypanosoma cruzi; assay: as §1, with “in” for “in blood”, “specific antibodies” for “load”, “infection measured 45 days post dose by ELISA based serological study” for “infection”; type: functional, organism-based
[6] = system: Trypanosoma cruzi; assay: (§2) Antimicrobial activity against Trypanosoma cruzi Tulahuen infected in Swiss mouse assessed as reduction in parasite specific antibodies at 60 mg/kg/day, po for 6 days per week until completion of 60 compound doses administered 5 days post infection measured 180 days post dose by ELISA based serological study; type: functional; set-up: scale not given: the % may be the effect or the level left
[7] = system: Trypanosoma cruzi; assay: as §1, with “reduction in” for “blood”, “induced histopathological changes in skeletal muscle” for “load”, “infection by hematoxylin-eosin staining” for “infection”; type: functional, organism-based
[8] = system: Trypanosoma cruzi; assay: as §1, with “reduction in” for “blood”, “induced histopathological changes in liver” for “load”, “infection by hematoxylin-eosin staining” for “infection”; type: functional, organism-based
[9] = system: Mus musculus; assay: Toxicity in Trypanosoma cruzi Tulahuen infected in Swiss mouse assessed as changes in liver SGOT enzyme levels at 60 mg/kg/day, po for 6 days per week until completion of 60 compound doses administered 5 days post infection […]; type: organism-based; set-up: route oral; details: in vivo
[10] = system: Trypanosoma cruzi; assay: Antimicrobial activity against Trypanosoma cruzi Tulahuen infected in Swiss mouse assessed as mouse mortality rate at 150 mg/kg/day, po for 6 days per week until completion of 60 compound doses administered 5 days post infection; type: functional
[11] = system: Trypanosoma cruzi; assay: Antimicrobial activity against Trypanosoma cruzi Tulahuen infected in Swiss mouse assessed as parasite DNA level at 150 mg/kg/day, po for 6 days per week until completion of 60 compound doses administered 5 days post infection measured 30 days post dose by PCR amplification method; type: functional
[12] = system: Trypanosoma cruzi; assay: Antimicrobial activity against Trypanosoma cruzi Tulahuen infected in Swiss mouse assessed as parasite DNA level at 150 mg/kg/day, po for 6 days per week until completion of 60 compound doses administered 5 days post infection measured 180 days post dose by PCR amplification method; type: functional
[13] = system: Trypanosoma cruzi; assay: (§3) Antimicrobial activity against Trypanosoma cruzi Tulahuen infected in Swiss mouse assessed as reduction in blood parasite load at 150 mg/kg/day, po for 6 days per week until completion of 60 compound doses administered 5 days post infection; type: functional, organism-based
[14] = system: Trypanosoma cruzi; assay: as §2, with “at 150” for “at 60”, “measured 45” for “measured 180”; type: functional, organism-based
[15] = system: Trypanosoma cruzi; assay: as §2, with “at 150” for “at 60”; type: functional; set-up: scale not given: the % may be the effect or the level left
[16] = system: Trypanosoma cruzi; assay: as §3, with “reduction in” for “blood”, “induced histopathological changes in skeletal muscle” for “load”, “infection by hematoxylin-eosin staining” for “infection”; type: functional, organism-based
[17] = system: Trypanosoma cruzi; assay: as §3, with “reduction in” for “blood”, “induced histopathological changes in liver” for “load”, “infection by hematoxylin-eosin staining” for “infection”; type: functional, organism-based
[18] = system: Mus musculus; assay: Toxicity in Trypanosoma cruzi Tulahuen infected in Swiss mouse assessed as changes in liver SGOT enzyme levels at 150 mg/kg/day, po for 6 days per week until completion of 60 compound doses administered 5 days post infection […]; type: organism-based; set-up: route oral; details: in vivo
[19] = system: Mus musculus; assay: Toxicity in Swiss mouse infected with Trypanosoma cruzi Tulahuen assessed as occurrence of erected hair at 150 mg/kg/day, po for 6 days per week until completion of 60 compound doses administered 5 days post infection measured 2 weeks post dose; type: organism-based; set-up: route oral; details: in vivo, 336 h
[20] = system: Mus musculus; assay: Toxicity in Swiss mouse infected with Trypanosoma cruzi Tulahuen assessed as occurrence of dehydration at 150 mg/kg/day, po for 6 days per week until completion of 60 compound doses administered 5 days post infection measured 2 weeks post dose; type: organism-based; set-up: route oral; details: in vivo, 336 h
[21] = system: Mus musculus; assay: Toxicity in Swiss mouse infected with Trypanosoma cruzi Tulahuen assessed as occurrence of inactivity at 150 mg/kg/day, po for 6 days per week until completion of 60 compound doses administered 5 days post infection measured 2 weeks post dose; type: organism-based; set-up: route oral; details: in vivo, 336 h

| SMILES | Activity [10] | Activity [11] | Activity [12] | Activity [13] | Activity [14] | Activity [16] | Activity [17] | Activity [18] | further results |
| --- | --- | --- | --- | --- | --- | --- | --- | --- | --- |
| O=C(Cn1ccnc1[N+](=O)[O-])NCc1ccccc1 [BENZNIDAZOLE] |  |  |  |  |  |  |  |  | Activity [1]: 33.3%; Activity [2]: 0%; Activity [3]: 0%; Activity [4]: Active; Activity [5]: Active; Activity [6]: 50%; Activity [7]: Active; Activity [8]: Active; Activity [9]: Non-toxic |
| O=C(NCO)N/N=C/c1ccc([N+](=O)[O-])o1 [HYDROXYMETHYLNITROFURAZONE] | 16% | 10% | 0% | Active | Active | Active | Active | Non-toxic | Activity [15]: 30% |
| NC(=O)N/N=C/c1ccc([N+](=O)[O-])o1 [NITROFURAZONE] | 75% | 66.6% | 0% | Active | Active | Active | Active | Non-toxic | Activity [19]: Toxic; Activity [20]: Toxic; Activity [21]: Toxic |
